The EC50 is the concentration giving half of the maximal effect. High values mean a less potent agent, low ones a more potent agent.

Values after ≈ are worked out from the molar mass of the structure shown.

Series [1] concerns Measles virus (strain Edmonston). Description: microbe, parasite or virus in culture. It counts as cell-based. Conditions: HeLa cells; 4 h pre-incubation; MOI 0.008.
Another series has as its system HeLa cells. Description: cell viability of uninfected HeLa cells. The note with it: Example 11.
Series [2] has as its system Dengue virus (strain DENV2New Guinea). Description: inhibition of virus-induced CPE, Dengue virus in Huh7 cells. Conditions: Huh-7, 4 h pre-incubation, MOI 0.001. The format is cell-based. The method, then: The Dengue virus strain DENV2New Guinea was obtained from ATCC (VR-1584) and was grown in Rhesus monkey kidney cells for the production of stock virus pools.
Cell viability determination as well as EC50 and TC50 calculations were performed as described in Examples 6 and 8.

A further series concerns Huh7 cells. Description: cell viability of uninfected Huh7 cells. Conditions: Example 12 (Dengue assay).

In the case of `NC(=O)c1ncn([C@@H]2O[C@H](CO)[C@@H](O)[C@H]2O)n1` [Ribavirin, reference compound], the concentration for a half-maximal effect (EC50) in series [1] stood at 1.88 mg/L (≈ 7.7 µM); in series [2], 4.73 mg/L (≈ 19.4 µM). Moreover, the TC50 came to 21.6 mg/L (≈ 88.4 µM) with HeLa cells and 48.5 mg/L (≈ 199 µM) in the series with Huh7 cells.

Source of the values: patent US20230174472A1, “THERAPEUTIC USE OF PLEUROMUTILINS” (priority 2020, published 2023).
